Laboratory results reported in article PMC9616048, “Thermal proteome profiling reveals Haemonchus orphan protein HCO_011565 as a target of the nematocidal small molecule UMW-868” (Frontiers in Pharmacology, 2022).

Tests used:
[1] = system: exsheathed third-stage larvae (xL3s) of H. contortus; assay: High throughput screen, xL3 motility (infrared light beam-interference); format: cell-based; settings: Haemonchus contortus, 90 h, read-out: Motility reduction at 90 h (%)
Method: An established platform was used for compound screening ([Taki et al., 2021a]). Using a semi-automated liquid handling robot (VIAFLO ASSIST PLUS, Integra Biosciences), compounds were individually diluted to […] in LB* containing 0.2% (v/v) DMSO and then dispensed in 20 µl into the wells of sterile 384-well flat bottom microtitre plates (cat. no. 3680; Corning); 320 compounds were arrayed on each plate, with 16 wells being negative controls (with LB* + 0.2% DMSO) and four wells containing each monepantel (Zolvix; Elanco), moxidectin (Cydectin; Virbac), monepantel + abamectin (Zolvix Plus; Elanco) and compound MIPS-0018666 (abbreviated here as M-666) ([Le et al., 2018]) as positive controls (20 µM). Following the dilution and dispensing of compounds into plates, 80 H. contortus xL3s in 20 μl of LB* were transferred to individual wells; after this step, the final concentrations were 20 µM of test- or positive-control compound, and 0.2% of DMSO. During dispensing, xL3s were maintained in a homogenous suspension using a constant stream of bubbles produced employing an aquarium pump (H2Pro). Plates containing H. contortus xL3s were incubated at 38 °C, 10% (v/v) CO2 and >90% relative humidity.
After 90 h of incubation with compounds (20 μM), H. contortus xL3s motility was measured for 15 min in individual wells of each plate by infrared light beam-interference ([Simonetta and Golombek, 2007]) using a WMicroTracker ONE instrument (Phylumtech). Raw data captured were normalised against measurements obtained for the positive (monepantel) and negative (LB* + 0.2% DMSO) controls to remove plate-to-plate variation by calculating the percentage of motility using the program GraphPad Prism (v.9.1.2; GraphPad Software). A compound was considered active (“hit”) if it reduced larval motility by ≥ 70%. To continually assess the performance of the screening assay, the Z′-factor ([Zhang et al., 1999]) was calculated (using data for the DMSO and the M-666 controls) for individual plates (n = 43) and was consistently ≥0.7; reliable assays achieve a Z′-factor of between 0.5 and 1. The signal to background (S/B) ratio (for the same controls) ([Sui and Wu, 2007]) was consistently >200.

HCO_014287 = assay: Thermal proteome profiling (TPP); format: binding, Haemonchus contortus; settings: UMW-868 at 50 μM, xL3 protein extract, 37–67°C, versus PBS control
Description: (§1) TPP is an advanced, multiplexed mass-spectrometry method that allows the unbiased identification or detection of drug targets ([Savitski et al., 2014]; [Perrin et al., 2020]; [Mateus et al., 2022]); it relies on the thermostability of protein-drug interactions to identify potential target protein(s) through denaturation profiles (melting curves) upon heat treatment ([Childs et al., 2019]), and has proven capacity to specifically identify targets of anti-cancer drugs or drug candidates ([Savitski et al., 2014]; [Perrin et al., 2020]; [Mateus et al., 2022]). […] The protein concentration in the supernatant was measured using a BCA Protein Assay Kit (Thermo Fisher Scientific), adjusted to 2 mg/ml and divided into four 250 μl aliquots/replicates (each containing 500 μg protein). • (ii) Incubation with compound (UMW-868), and temperature profile: Of the four 250 µl aliquots of xL3 proteins, two (i.e., test-samples) were each incubated with an equal volume of compound (UMW-868 at 50 μM), and two (control-samples) with an equal volume of PBS (pH 7.0) for 30 min at 23°C. […]

HCO_011565 = assay: Thermal proteome profiling (TPP); format: binding, Haemonchus contortus; settings: UMW-868 at 50 μM, xL3 protein extract, 37–67°C, versus PBS control
Description: as §1

CCCc1ccc(-c2nc(-c3cccs3)no2)cc1 [UMW-868, 5-(4-propylphenyl)-3-(2-thienyl)-1,2,4-oxadiazole]
inhibition at 20 µM [1]: 78.4% | thermostability of protein in presence of compound (HCO_014287): highest, statistically significant thermostability | thermostability of protein in presence of compound (HCO_011565): highest, statistically significant thermostability
